Data published in ChEMBL document CHEMBL3596160, “From AChE to BACE1 inhibitors: The role of the amine on the indanone scaffold” (Bioorg Med Chem Lett, 2015).
The source made the active and inactive calls. No cut-off for these calls is given here.

Key:
Beta-secretase 1 = Beta-secretase 1 (Homo sapiens, UniProt P56817); experiment: Inhibition of human recombinant BACE1 using M-2420 as substrate preincubated with enzyme for 1 hr by FRET assay
Acetylcholinesterase [1] = target: T1, Acetylcholinesterase (Homo sapiens, UniProt P22303); experiment: Inhibition of human recombinant AChE using acetylthiocholine iodide as substrate up to 50 uM preincubated with enzyme for 20 mins prior to substrate addition by Ellman's method
[2] = (§1) Neurotoxicity against human SH-SY5Y cells assessed as inhibition of cell viability after 24 hrs by MTT assay; format: toxicity, cell-based; details: SH-SY5Y cells
SH-SY5Y = experiment: as §1; format: toxicity, cell-based; details: sh-sy5y, 24 h
Acetylcholinesterase [3] = target: T1, Acetylcholinesterase
Description: Inhibition of human recombinant AChE using acetylthiocholine iodide as substrate preincubated with enzyme for 20 mins prior to substrate addition by Ellman's method

Beta-secretase 1, sequence (P56817 whole entry): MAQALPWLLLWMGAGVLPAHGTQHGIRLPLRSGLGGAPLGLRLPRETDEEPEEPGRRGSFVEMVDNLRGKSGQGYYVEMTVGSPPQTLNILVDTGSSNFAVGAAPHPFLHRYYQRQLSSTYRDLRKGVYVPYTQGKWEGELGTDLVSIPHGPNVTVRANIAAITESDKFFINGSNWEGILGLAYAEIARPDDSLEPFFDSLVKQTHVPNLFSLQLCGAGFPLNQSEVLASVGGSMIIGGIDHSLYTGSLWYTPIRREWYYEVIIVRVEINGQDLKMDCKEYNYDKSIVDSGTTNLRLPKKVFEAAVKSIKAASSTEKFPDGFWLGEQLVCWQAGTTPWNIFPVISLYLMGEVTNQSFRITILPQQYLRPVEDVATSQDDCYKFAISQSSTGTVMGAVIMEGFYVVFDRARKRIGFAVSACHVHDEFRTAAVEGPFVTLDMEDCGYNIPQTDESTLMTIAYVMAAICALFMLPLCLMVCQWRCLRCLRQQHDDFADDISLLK
T1 sequence (P22303 whole entry): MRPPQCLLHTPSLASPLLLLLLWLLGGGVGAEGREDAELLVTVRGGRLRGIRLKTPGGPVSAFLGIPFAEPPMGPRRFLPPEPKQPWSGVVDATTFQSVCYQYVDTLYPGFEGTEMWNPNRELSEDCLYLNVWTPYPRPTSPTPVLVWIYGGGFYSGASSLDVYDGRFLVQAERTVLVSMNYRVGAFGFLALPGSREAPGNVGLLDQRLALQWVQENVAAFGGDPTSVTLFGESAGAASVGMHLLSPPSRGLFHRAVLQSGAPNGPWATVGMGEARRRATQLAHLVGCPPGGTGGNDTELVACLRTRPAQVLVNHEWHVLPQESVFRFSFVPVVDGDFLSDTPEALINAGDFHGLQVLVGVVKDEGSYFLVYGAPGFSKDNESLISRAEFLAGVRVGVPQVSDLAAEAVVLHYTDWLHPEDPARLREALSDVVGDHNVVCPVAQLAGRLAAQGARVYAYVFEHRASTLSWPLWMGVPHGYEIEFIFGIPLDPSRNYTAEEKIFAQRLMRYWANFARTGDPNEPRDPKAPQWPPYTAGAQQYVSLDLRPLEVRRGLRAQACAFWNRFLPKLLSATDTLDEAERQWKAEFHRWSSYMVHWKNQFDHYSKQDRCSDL

Row | Compound | IC50 (Beta-secretase 1) | inhibition (Acetylcholinesterase [1]) | further results
1 | CN(Cc1ccccc1)Cc1ccc(/C=C2\Cc3ccc(OCCCCCN4CCC(=C(c5ccc(F)cc5)c5ccc(F)cc5)CC4)cc3C2=O)cc1 | 5.95 µM | inactive | –
2 | CN(Cc1ccccc1)Cc1ccc(/C=C2\CCc3cc(OCCCCCN4CCN(C(c5ccc(F)cc5)c5ccc(F)cc5)CC4)ccc3C2=O)cc1 | – | inactive | –
3 | CCOC(=O)C1(c2ccccc2)CCN(CCCCCOc2ccc3c(c2)C(=O)/C(=C/c2ccc(CN(C)Cc4ccccc4)cc2)C3)CC1 | 8.23 µM | inactive | –
4 | CN(Cc1ccccc1)Cc1ccc(/C=C2\Cc3ccc(OCCCCCN4CCN(c5ccccc5)CC4)cc3C2=O)cc1 | 11.7 µM | inactive | –
5 | CN(Cc1ccccc1)Cc1ccc(/C=C2\Cc3ccc(OCCCCCN4CCCCC4)cc3C2=O)cc1 | – | – | IC50 at 24 h [2]: 23.3 µM
6 | CN(Cc1ccccc1)Cc1ccc(/C=C2\Cc3ccc(OCCCCCN4CCC(n5c(=O)[nH]c6ccccc65)CC4)cc3C2=O)cc1 | – | inactive | –
7 | CN(Cc1ccccc1)Cc1ccc(/C=C2\Cc3ccc(OCCCCCN4CCN(OC(=O)C(C)(C)C)CC4)cc3C2=O)cc1 | 3.21 µM | inactive | Activity (SH-SY5Y): Non-toxic
8 | CN(Cc1ccccc1)Cc1ccc(/C=C2\Cc3ccc(OCCCCCN4CCN(C(c5ccc(F)cc5)c5ccc(F)cc5)CC4)cc3C2=O)cc1 | 2.49 µM | inactive | Activity (SH-SY5Y): Non-toxic
9 | CN(Cc1ccccc1)Cc1ccc(/C=C2\Cc3ccc(OCCCCCN4CCC(c5ccccc5)CC4)cc3C2=O)cc1 | 13.4 µM | – | IC50 (Acetylcholinesterase [3]): 62 µM
10 | CN(Cc1ccccc1)Cc1ccc(/C=C2\CCc3cc(OCCCCCN4CCN(Cc5ccc(F)cc5)CC4)ccc3C2=O)cc1 | – | – | IC50 (Acetylcholinesterase [3]): 7.83 µM
11 | CN(Cc1ccccc1)Cc1ccc(/C=C2\Cc3ccc(OCCCCCN4CCN(Cc5ccc(F)cc5)CC4)cc3C2=O)cc1 | – | inactive | –
